Experimental data reported in patent US20250136552A1, “ANTAGONISTS OF CAV 2.3” (LARIO THERAPEUTICS LIMITED, priority 2021, published 2025).

target: Cav2.3 (Homo sapiens, UniProt Q15878); experiment: Human Cav2.3 channel calcium-influx assay; type: cell-based; details: HEK-293 T-Rex/Kir2.1 cells with inducible Cav2.3e-β4-α2δ1; Fluo8 fluorescence; 8-point dose response from 30 μM; no pluronic acid; read-out: Cav2.3 (pIC50) (converted)
Description: HEK-293 T-Rex cells were transfected with pcDNA3.1-Kir2.1 to generate a stable cell line. After antibiotic selection, the obtained stable pools were analysed using FLIPR^TETRA(membrane potential assay), and a limiting dilution was performed and a HEK-293 T-Rex/Kir2.1 clone was selected. The clone was transfected with pcDNA3.1-Cav2.3e and pBud-Cav-β4-α2δ1 to generate a stable cell line where the Cav2.3e expression is inducible. After antibiotic selection, functional clone pool analysis and two successive limiting dilutions, the final clone underwent a qPCR analysis and a biophysical and pharmacological validation using patch-clamp.
A compound plate, containing 10 test compounds in eight-points dose response with n=4, was prepared. Test compounds dose response curves were prepared in automated fashion in 100% DMSO at CyBio Felix and starting from a stock solution in 100% DMSO; a defined volume was serially moved into destination wells pre-filled with the desired DMSO volume; stock solution concentration volumes were dependent on the final compounds concentrations to be tested and the final DMSO content used in the assay. For the assay test compounds dose response curves ranged from 30 μM and half log dilution with 0.3% final DMSO. In order to obtain the 8-points dose response curve all the concentrations were created by starting from a 10 mM DMSO stock solution and then moving 9.5 μL into a destination well pre-filled with 20.5 μL of 100% DMSO and repeating this step seven times. This initial step was done into 96 MTP plates, 10 compounds/plate. One 384 MTP was then reformatted to contain all the 10 compounds at 8 concentrations, quadruplicate data points. This so obtained 384 MTP compound plate served as source plate in a “mother to child” process with a CyBi®-Well dispenser in which 0.7 μL of compounds were moved into a destination plate pre-filled with 57.6 μL of Tyrode's buffer 0 mM K^+, thus obtaining 4× concentrated compounds solution. In columns 1-2 and 23-24 the control wells were added. Both “source” compound plate and “destination” compound plate were barcoded and a relationship between the two plates was thus generated.
The day before the experiment, cells were detached by gentle wash with DPBS, followed by 5 min incubation at 37° C. with Trypsin solution. Detached cells were diluted with OptiMEM+Doxycycline at 0.2 μg/mL, counted and plated in Poly-D-Lysine coated black/clear bottom (15.000 c/well in 20 μl/well) by the use of a MATRIX WellMate dispenser. Plates were placed into a humidified incubator at 37° C. with 5% CO2 until the experimental day. 24 h after seeding 10 μL/well of 1.5× Fluo8 NW dye solution prepared in Tyrode's buffer 0 mM K^+ were added on top of the seeding medium. Cell plates were incubated for 40-60 min at RT in the dark. We then Injected off-line 10 μL/well of test compounds and controls 4× concentrated in Tyrode's Buffer 0 mM K+ with the CyBi®-Well instrument. Cell plates were incubated 3 minutes at RT. Finally, we injected 20 μL/well of 3× concentrated activator solution (K20-Na130-Ca2 buffer: 20 mM KCl, 130 mM NaCl, 2 mM CaCl2, 10 mM HEPES, 10 mM Glucose, final concentrations, prepared starting from “K0-Na150-Ca2” and “K150-Na0-Ca2” buffers) at FDSS7000EX instrument and read emitted fluorescence for 130 seconds.
Data analysis was performed with Genedata Screener® software and reported compounds activity as % effect in relation to the normalization standards. The Kinetic Response Value (KRV) is calculated as follows:
KRV=Maximal fluorescence recorded from second 5 to second 130 minus baseline fluorescence, computed as average from second 1 to second 2, of the kinetic trace. The KRV was normalized versus Neutral Controls and Inhibitor Controls in order to obtain the Activity[%] for each well. […] Therefore, the compound activity values were scaled (based on the two references) to a common range (two-point normalization). […]

Cav2.3, sequence (Q15878 1-2270 isoform Q15878-3): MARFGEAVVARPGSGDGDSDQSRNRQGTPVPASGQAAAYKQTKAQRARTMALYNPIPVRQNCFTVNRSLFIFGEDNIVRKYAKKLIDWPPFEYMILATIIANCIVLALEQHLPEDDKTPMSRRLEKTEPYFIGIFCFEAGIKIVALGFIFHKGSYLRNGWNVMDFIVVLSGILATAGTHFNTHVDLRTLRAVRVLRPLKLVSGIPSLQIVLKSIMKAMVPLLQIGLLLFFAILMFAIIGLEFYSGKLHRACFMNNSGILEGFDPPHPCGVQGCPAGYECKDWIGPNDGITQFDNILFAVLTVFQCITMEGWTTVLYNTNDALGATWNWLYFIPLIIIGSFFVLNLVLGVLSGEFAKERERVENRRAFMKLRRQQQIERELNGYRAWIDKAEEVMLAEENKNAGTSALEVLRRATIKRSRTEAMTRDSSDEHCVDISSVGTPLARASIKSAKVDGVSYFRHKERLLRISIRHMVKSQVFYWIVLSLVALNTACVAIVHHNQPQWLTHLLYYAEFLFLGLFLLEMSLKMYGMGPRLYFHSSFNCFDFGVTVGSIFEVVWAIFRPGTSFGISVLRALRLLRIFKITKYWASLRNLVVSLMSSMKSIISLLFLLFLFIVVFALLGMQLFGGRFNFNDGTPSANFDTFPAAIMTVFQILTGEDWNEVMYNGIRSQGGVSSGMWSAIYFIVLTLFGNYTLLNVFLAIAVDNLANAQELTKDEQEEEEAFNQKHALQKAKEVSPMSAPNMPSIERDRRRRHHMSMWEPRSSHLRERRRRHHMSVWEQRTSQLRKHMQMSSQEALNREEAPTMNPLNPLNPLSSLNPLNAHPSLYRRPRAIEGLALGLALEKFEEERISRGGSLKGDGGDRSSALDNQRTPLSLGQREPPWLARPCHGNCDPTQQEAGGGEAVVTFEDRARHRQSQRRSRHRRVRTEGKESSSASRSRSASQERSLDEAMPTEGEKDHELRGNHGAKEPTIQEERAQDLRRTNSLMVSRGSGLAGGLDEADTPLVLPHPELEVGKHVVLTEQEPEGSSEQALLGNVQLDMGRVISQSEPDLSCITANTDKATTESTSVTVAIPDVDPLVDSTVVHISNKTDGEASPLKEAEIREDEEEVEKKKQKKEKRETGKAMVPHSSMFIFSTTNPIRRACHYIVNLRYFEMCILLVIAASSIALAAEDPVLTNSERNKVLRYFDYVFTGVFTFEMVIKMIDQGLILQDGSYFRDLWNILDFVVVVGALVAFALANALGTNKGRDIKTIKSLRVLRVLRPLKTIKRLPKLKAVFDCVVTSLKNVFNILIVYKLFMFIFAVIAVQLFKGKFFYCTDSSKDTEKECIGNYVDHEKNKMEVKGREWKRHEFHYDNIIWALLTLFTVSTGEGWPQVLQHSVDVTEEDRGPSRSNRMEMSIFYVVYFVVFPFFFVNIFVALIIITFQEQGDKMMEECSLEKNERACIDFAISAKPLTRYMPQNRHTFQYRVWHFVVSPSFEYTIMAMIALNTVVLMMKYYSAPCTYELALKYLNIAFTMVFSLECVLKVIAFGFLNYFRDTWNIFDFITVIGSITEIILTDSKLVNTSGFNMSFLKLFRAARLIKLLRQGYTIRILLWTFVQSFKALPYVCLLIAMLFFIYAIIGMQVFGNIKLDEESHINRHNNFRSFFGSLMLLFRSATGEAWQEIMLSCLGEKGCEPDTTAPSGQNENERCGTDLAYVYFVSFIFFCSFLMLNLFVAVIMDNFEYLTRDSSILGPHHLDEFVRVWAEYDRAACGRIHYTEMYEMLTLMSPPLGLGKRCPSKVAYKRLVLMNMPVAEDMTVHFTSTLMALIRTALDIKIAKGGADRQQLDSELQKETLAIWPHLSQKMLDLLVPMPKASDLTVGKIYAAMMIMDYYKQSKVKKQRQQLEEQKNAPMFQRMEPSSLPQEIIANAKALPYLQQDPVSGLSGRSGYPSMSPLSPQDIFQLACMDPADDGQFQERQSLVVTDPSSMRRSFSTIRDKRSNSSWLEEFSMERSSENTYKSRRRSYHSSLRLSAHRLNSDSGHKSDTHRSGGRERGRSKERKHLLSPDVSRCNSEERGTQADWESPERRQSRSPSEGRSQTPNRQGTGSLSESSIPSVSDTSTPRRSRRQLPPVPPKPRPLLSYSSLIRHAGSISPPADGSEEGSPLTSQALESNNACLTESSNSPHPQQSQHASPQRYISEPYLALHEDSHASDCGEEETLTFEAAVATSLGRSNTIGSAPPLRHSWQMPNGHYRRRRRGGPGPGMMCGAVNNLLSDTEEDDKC

In order of rising IC50:
1. CCN(C(c1ccc(F)cc1)C(F)(F)F)S(=O)(=O)c1ccc2c(c1)CN(C(=O)C1CC1)CC2 (stereo not shown) [Example 46, 2-(Cyclopropanecarbonyl)-N-ethyl-N-(2,2,2-trifluoro-1-(4-fluorophenyl)ethyl)-1,2,3,4-tetrahydroisoquinoline-7-sulfonamide]  316 nM
2. CCN(C(c1ccc(F)cc1)C(F)(F)F)S(=O)(=O)c1ccc2c(c1)CN(C(=O)C(C)C)CC2 (stereo not shown) [Example 5, N-ethyl-2-isobutyryl-N-(2,2,2-trifluoro-1-(4-fluorophenyl)ethyl)-1,2,3,4-tetrahydroisoquinoline-7-sulfonamide]  437 nM
3. CC(C)C(=O)N1CCc2ccc(S(=O)(=O)N(C)[C@@H](C)c3ccc(F)cc3)cc2C1 [Example 11, (S)-N-(1-(4-fluorophenyl)ethyl)-2-isobutyryl-N-methyl-1,2,3,4-tetrahydroisoquinoline-7-sulfonamide]  851 nM
4. CCN([C@H](c1ccc(F)cc1)C(F)(F)F)S(=O)(=O)c1ccc2c(c1)CN(C(=O)C(C)(C)F)CC2 [Example 41, (R)-N-ethyl-2-(2-fluoro-2-methylpropanoyl)-N-(2,2,2-trifluoro-1-(4-fluorophenyl)ethyl)-1,2,3,4-tetrahydroisoquinoline-7-sulfonamide]  891 nM
5. CC(C)C(=O)N1CCc2ccc(S(=O)(=O)N(C)[C@@H](C)c3ccccc3)cc2C1 [Example 15, (S)-2-isobutyryl-N-methyl-N-(1-phenylethyl)-1,2,3,4-tetrahydroisoquinoline-7-sulfonamide]  891 nM
6. CCN([C@@H](C)c1ccc(F)cc1)S(=O)(=O)c1ccc2c(c1)CN(C(=O)C1CC1)CC2 [Example 13, (S)-2-(cyclopropanecarbonyl)-N-ethyl-N-(1-(4-fluorophenyl)ethyl)-1,2,3,4-tetrahydroisoquinoline-7-sulfonamide]  912 nM
7. CCN([C@@H](C)c1ccc(F)cc1)S(=O)(=O)c1cc(F)c2c(c1)CCN(C(=O)C1CC1)C2 [Example 22, (S)-2-(cyclopropanecarbonyl)-N-ethyl-8-fluoro-N-(1-(4-fluorophenyl)ethyl)-1,2,3,4-tetrahydroisoquinoline-6-sulfonamide]  955 nM
8. CC(C)C(=O)N1CCc2ccc(S(=O)(=O)N(C)C(c3ccc(F)cc3)C(F)(F)F)cc2C1 (stereo not shown) [Example 8, 2-isobutyryl-N-methyl-N-(2,2,2-trifluoro-1-(4-fluorophenyl)ethyl)-1,2,3,4-tetrahydroisoquinoline-7-sulfonamide]  1070 nM
9. CCN([C@@H](C)c1ccc(F)cc1)S(=O)(=O)c1ccc2c(c1)CCN(C(=O)C(C)C)C2 [Example 24, (S)-N-ethyl-N-(1-(4-fluorophenyl)ethyl)-2-isobutyryl-1,2,3,4-tetrahydroisoquinoline-6-sulfonamide]  1740 nM
10. CC(C)C(=O)N1CCc2ccc(S(=O)(=O)N(C)[C@@H](C)c3ccccc3)cc2CC1 [Example 36, (S)-3-isobutyryl-N-methyl-N-(1-phenylethyl)-2,3,4,5-tetrahydro-1H-benzo[d]azepine-7-sulfonamide]  1950 nM
11. CCN([C@@H](c1ccc(F)cc1)C(F)(F)F)S(=O)(=O)c1ccc2c(c1)CN(C(=O)C(C)C)CC2 (stereo in doubt) [Example 7, N-ethyl-2-isobutyryl-N-(2,2,2-trifluoro-1-(4-fluorophenyl)ethyl)-1,2,3,4-tetrahydroisoquinoline-7-sulfonamide]  2000 nM
12. C[C@@H](c1ccccc1)N(C)S(=O)(=O)c1ccc2c(c1)CN(C(=O)c1ccccc1)CC2 [Example 4, (S)-2-benzoyl-N-methyl-N-(1-phenylethyl)-1,2,3,4-tetrahydroisoquinoline-7-sulfonamide]  2000 nM
13. C[C@@H](c1ccccc1)N(C)S(=O)(=O)c1ccc2c(c1)CN(C(=O)C(F)(F)F)CC2 [Example 2, (S)-N-methyl-N-(1-phenylethyl)-2-(2,2,2-trifluoroacetyl)-1,2,3,4-tetrahydroisoquinoline-7-sulfonamide]  2040 nM
14. CCN([C@@H](C)c1ccc(F)cc1)S(=O)(=O)c1ccc2c(c1)C(C)(C)CN(C(=O)C1CC1)C2 [Example 23, (S)-2-(cyclopropanecarbonyl)-N-ethyl-N-(1-(4-fluorophenyl)ethyl)-4,4-dimethyl-1,2,3,4-tetrahydroisoquinoline-6-sulfonamide]  2140 nM
15. CCN([C@@H](C)c1ccc(F)cc1)S(=O)(=O)c1cnc2c(c1)CCN(C(=O)C1CC1)C2 [Example 32, (S)-7-(cyclopropanecarbonyl)-N-ethyl-N-(1-(4-fluorophenyl)ethyl)-5,6,7,8-tetrahydro-1,7-naphthyridine-3-sulfonamide]  2290 nM
16. CCN([C@@H](c1ccc(F)cc1)C(F)(F)F)S(=O)(=O)c1ccc2c(c1)CN(C(=O)C(C)(C)F)CC2 [Example 42, (S)-N-ethyl-2-(2-fluoro-2-methylpropanoyl)-N-(2,2,2-trifluoro-1-(4-fluorophenyl)ethyl)-1,2,3,4-tetrahydroisoquinoline-7-sulfonamide]  2630 nM
17. CC(C)C(=O)N1CCCc2cc(S(=O)(=O)N(C)[C@@H](C)c3ccccc3)ccc2C1 [Example 35, (S)-2-Isobutyryl-N-methyl-N-(1-phenylethyl)-2,3,4,5-tetrahydro-1H-benzo[c]azepine-7-sulfonamide]  3160 nM
18. CCN([C@@H](C)c1ccc(F)cc1)S(=O)(=O)c1ccc2c(n1)CCN(C(=O)C1CC1)C2 [Example 33, (S)-6-(cyclopropanecarbonyl)-N-ethyl-N-(1-(4-fluorophenyl)ethyl)-5,6,7,8-tetrahydro-1,6-naphthyridine-2-sulfonamide]  3630 nM
19. CCN([C@H](C)c1ccccc1)S(=O)(=O)c1ccc2c(c1)CCN(C(=O)C1CC1)C2 [Example 27, (R)-2-(cyclopropanecarbonyl)-N-ethyl-N-(1-phenylethyl)-1,2,3,4-tetrahydroisoquinoline-6-sulfonamide]  3630 nM
20. CC(C)C(=O)N1CCc2ccc(S(=O)(=O)N(C)[C@@H](c3ccc(F)cc3)C(F)(F)F)cc2C1 [Example 10, (S)-2-isobutyryl-N-methyl-N-(2,2,2-trifluoro-1-(4-fluorophenyl)ethyl)-1,2,3,4-tetrahydroisoquinoline-7-sulfonamide]  3720 nM
21. CCN(C1(c2ccc(F)cc2)COC1)S(=O)(=O)c1ccc2c(c1)CN(C(=O)C(C)C)CC2 [Example 28, N-ethyl-N-(3-(4-fluorophenyl)oxetan-3-yl)-2-isobutyryl-1,2,3,4-tetrahydroisoquinoline-7-sulfonamide]  3800 nM
22. CCN([C@H](C)c1ccccc1)S(=O)(=O)c1ccc2c(c1)CCN(C(=O)C(C)C)C2 [Example 26, (R)-N-ethyl-2-isobutyryl-N-(1-phenylethyl)-1,2,3,4-tetrahydroisoquinoline-6-sulfonamide]  4170 nM
23. CCN([C@@H](c1ccc(F)cc1)C(F)(F)F)S(=O)(=O)c1ccc2c(c1)CN(C(=O)C1CC1)CC2 [Example 47, (S)-2-(Cyclopropanecarbonyl)-N-ethyl-N-(2,2,2-trifluoro-1-(4-fluorophenyl)ethyl)-1,2,3,4-tetrahydroisoquinoline-7-sulfonamide]  4570 nM
24. CCN(C1(c2ccc(F)cc2)COC1)S(=O)(=O)c1ccc2c(c1)CCN(C(=O)C(C)C)C2 [Example 30, N-ethyl-N-(3-(4-fluorophenyl)oxetan-3-yl)-2-isobutyryl-1,2,3,4-tetrahydroisoquinoline-6-sulfonamide]  6760 nM
25. CC(C)C(=O)N1CCc2ccc(S(=O)(=O)N(C)C3(c4ccc(F)cc4)COC3)cc2C1 [Example 29, N-(3-(4-fluorophenyl)oxetan-3-yl)-2-isobutyryl-N-methyl-1,2,3,4-tetrahydroisoquinoline-7-sulfonamide]  7080 nM
